The numbers were not newly measured in US20070298008A1, “Method of bowel cleansing” (Braintree Laboratories, Inc., priority 2002, published 2007), which cites them from elsewhere.

Like-named read-outs stand apart in the source and are kept apart here.

In the data set the test system is intestines and rectum.

Consider `CC(=O)Oc1ccc(C(c2ccc(OC(C)=O)cc2)c2ccccn2)cc1` [Bisacodyl], for which the “Time to produce a bowel movement” value by setting is: (enema) “about 20 minutes”; (suppository) “about an hour”.
